The target of one data set is T1, OATP2B1 (Homo sapiens, UniProt O94956).
T1 construct: expressed in transfected cells; host or cells: A431
T1 sequence (O94956 1-709): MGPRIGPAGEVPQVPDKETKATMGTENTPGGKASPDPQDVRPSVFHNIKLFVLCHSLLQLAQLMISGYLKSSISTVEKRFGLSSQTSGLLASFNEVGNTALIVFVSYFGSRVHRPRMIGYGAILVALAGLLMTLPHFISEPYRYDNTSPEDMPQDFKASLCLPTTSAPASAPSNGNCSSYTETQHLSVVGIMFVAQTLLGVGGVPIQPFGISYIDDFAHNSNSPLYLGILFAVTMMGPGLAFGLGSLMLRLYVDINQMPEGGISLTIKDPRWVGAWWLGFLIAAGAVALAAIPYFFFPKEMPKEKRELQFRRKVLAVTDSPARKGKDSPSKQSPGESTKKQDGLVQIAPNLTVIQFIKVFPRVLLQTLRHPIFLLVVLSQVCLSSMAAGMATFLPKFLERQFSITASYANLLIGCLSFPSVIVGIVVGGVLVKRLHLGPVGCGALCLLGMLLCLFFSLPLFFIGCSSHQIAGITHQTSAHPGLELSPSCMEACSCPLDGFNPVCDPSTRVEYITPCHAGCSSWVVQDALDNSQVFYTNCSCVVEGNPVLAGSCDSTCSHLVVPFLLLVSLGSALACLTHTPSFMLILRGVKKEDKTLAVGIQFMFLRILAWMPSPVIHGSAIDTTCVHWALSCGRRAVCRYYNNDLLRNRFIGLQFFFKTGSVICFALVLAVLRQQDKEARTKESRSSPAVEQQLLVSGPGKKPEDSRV
Description: Inhibition of OATP2B1-mediated pyranine uptake in A431 cells. The format is cell-based. The conditions noted are these: for inhibition at 15 min, 25 μM: human, A431 cells overexpressing OATP2B1, pH 5.5, probe pyranine, 20 μM, read-out: inhibition / reduction of OATP2B1 transport activity; for inhibition at 15 min, 25 μM / inhibition of OATP2B1 in words: 25 μM flavonoid; for IC50: 15 min, uptake buffer pH 5.5, A431-OATP2B1 cells; for inhibitory strength on OATP2B1 relative to A4′S: ratio of IC50 values. As for the experimental part: Human A431 cells overexpressing OATPs (OATP1B1 or OATP2B1) and their mock‐transfected controls were established earlier.[42], [43] The cells were maintained at 37°C with 5% CO2 in Dulbecco's Modified Eagle Medium (DMEM; Thermo Fischer Scientific, Waltham, MA, USA) supplemented with fetal bovine serum (10%), L‐glutamine (2 mM), penicillin (100 units/mL) and streptomycin (100 μg/mL).
The inhibitory impacts of MYR, AMP, and their sulfate metabolites on OATP1B1 and OATP2B1 were examined using the fluorescent dye substrates disulfopyrene (6,8‐dihydroxy‐1,3‐disulfopyrene) and pyranine, respectively.[42], [43] The day before the transport measurements, A431 cells overexpressing OATP1B1 or OATP2B1 (and their mock‐transfected controls) were seeded onto 96‐well plates at a density of 80 000 cells/well in DMEM (200 μL). Next day, the medium was removed, the cells were washed three times with PBS (pH 7.4, 200 μL) at room temperature, then the cells were pre‐incubated with 50 μL of Hank's Balanced Salt Solution (HBSS, pH 7.4; OATP1B1) or uptake buffer (pH 5.5; OATP2B1) for 5 min at 37°C with or without the flavonoids.[43] The transport reaction was started by adding 50 μL of disulfopyrene‐containing (final concentration: 10 μM) HBSS (OATP1B1 assay), or pyranine‐containing (final concentration: 20 μM) uptake buffer (OATP2B1 assay). After 10 min (OATP1B1) or 15 min (OATP2B1), the transport was stopped by removing the supernatant and washing the cells three times with ice‐cold PBS (200 μL). Then the fluorescence was measured in 200 μL of PBS using an Enspire plate reader (PerkinElmer, Waltham, MA, US) at excitation and emission wavelengths of 460/510 nm. OATP‐dependent transport was determined by subtracting the fluorescence detected in mock control cells from that of OATP‐expressing cells. Transport activity was measured based on the fluorescence signal in the absence of flavonoids (100%).

For data set [1], the system named is T2, human serum albumin (HSA).
T2 construct: purchased Merck (Darmstadt, Germany) A1653
The experiment in a line: Ultrafiltration: displacement of the Site I marker warfarin from HSA. The format is binding. As to conditions: flavonoid 20 μM, warfarin 1 μM, HSA 5 μM, PBS pH 7.4. As for the experimental part: The impacts of MYR, M3′S, AMP, and A4′S on the albumin‐bound fraction of the Site I marker warfarin were examined with the previously reported ultrafiltration method.[17], [18] Briefly, samples contained warfarin (1 μM) and HSA (5 μM) without or with flavonoids (20 μM) in PBS (pH 7.4). After two washing steps of the filters (Amicon Ultra‐0.5 Centrifugal Filter Units, 30 kDa molecular weight cut‐off; Merck, Darmstadt, Germany) with water then PBS (both 500 μL), samples (500 μL) were centrifuged for 10 min (7500 g, 25°C, fixed angle rotor).
Warfarin was quantified using an HPLC system (Jasco, Tokyo, Japan) with an autosampler (AS‐4050), a binary pump (PU‐4180), a fluorescence detector (Jasco FP‐920), and the ChromNAV2 software. The concentrations of warfarin in the filtrate were directly determined by applying the previously described method.[17], [18] […] The fluorescence detection of warfarin was carried out at 310 and 390 nm excitation and emission wavelengths, respectively.

Where [2] appears, read: pyranine 20 μM, read-out: IC50, OATP2B1.

“And” between values parts separate entries of the source, which are not always exact repeats. Identical values can stand only once. Like-named read-outs stand apart in the source and are kept apart here.

As a reminder, the IC50 is the point on the concentration scale where inhibition reaches its midpoint.

As for `O=C1c2c(O)cc(O)cc2OC(c2cc(O)c(OS(=O)(=O)O)c(O)c2)C1O` (stereo not shown) [A4′S, ampelopsin‐4′‐O‐sulfate], the inhibition at 15 min, 25 μM at OATP2B1 turned out to be 90%. Further, the 50% inhibitory concentration (IC50) on OATP2B1 (setting [2]) was 2150 nM and 2200 nM. Further, the “effect on the filtered fraction of warfarin” value in data set [1] was “not affected”.
On to `O=C1c2c(O)cc(O)cc2O[C@H](c2cc(O)c(O)c(O)c2)[C@H]1O` [AMP, ampelopsin], for which the inhibition at 15 min, 25 μM at OATP2B1 is roughly 70%. In addition, the “effect on the filtered fraction of warfarin” value in data set [1] was “not affected”.
On to `O=c1c(O)c(-c2cc(O)c(O)c(OS(=O)(=O)O)c2)oc2cc(O)cc(O)c12` [M3′S, myricetin‐3′‐O‐sulfate], for which, on OATP2B1, the “inhibition of OATP2B1 in words” value is “almost completely blocked” and the “inhibitory strength on OATP2B1 relative to A4′S” value is recorded as “seven‐fold”. For the same molecule, the IC50 on OATP2B1 (setting [2]) is 290 nM and 300 nM. In data set [1], the “effect on the filtered fraction of warfarin” value was “moderate increases”.
`O=c1c(O)c(-c2cc(O)c(O)c(O)c2)oc2cc(O)cc(O)c12` [MYR, myricetin]: at OATP2B1, the “inhibition of OATP2B1 in words” value is listed as “almost completely blocked” and the “inhibitory strength on OATP2B1 relative to A4′S” value is reported as “five‐fold”. Further, the IC50 on OATP2B1 (IC50, OATP2B1, pyranine 20 μM) was 430 nM and 400 nM. In addition, in data set [1], the “effect on the filtered fraction of warfarin” value is listed as “moderate increases”.

(Values after article PMC11440035, “Interaction of myricetin, ampelopsin (dihydromyricetin), and their sulfate metabolites with serum albumin, cytochrome P450 (CYP2C9, 2C19, and 3A4) enzymes, and organic anion‐transporting polypeptides (OATP1B1 and OATP2B1)” (Pharmacology Research & Perspectives, 2024).)
